According to ChEMBL document CHEMBL4043257, “PTP1B inhibitors from the seeds of Iris sanguinea and their insulin mimetic activities via AMPK and ACC phosphorylation” (Bioorg Med Chem Lett, 2017):
Active and inactive are the calls of the source. No cut-off for these calls is given here.

What was measured:
[1] = target: T1, Tyrosine-protein phosphatase non-receptor type 1 (Homo sapiens, UniProt P18031); experiment: Inhibition of recombinant human PTP1B using pNPP as substrate after 30 mins
T1 sequence (P18031 whole entry): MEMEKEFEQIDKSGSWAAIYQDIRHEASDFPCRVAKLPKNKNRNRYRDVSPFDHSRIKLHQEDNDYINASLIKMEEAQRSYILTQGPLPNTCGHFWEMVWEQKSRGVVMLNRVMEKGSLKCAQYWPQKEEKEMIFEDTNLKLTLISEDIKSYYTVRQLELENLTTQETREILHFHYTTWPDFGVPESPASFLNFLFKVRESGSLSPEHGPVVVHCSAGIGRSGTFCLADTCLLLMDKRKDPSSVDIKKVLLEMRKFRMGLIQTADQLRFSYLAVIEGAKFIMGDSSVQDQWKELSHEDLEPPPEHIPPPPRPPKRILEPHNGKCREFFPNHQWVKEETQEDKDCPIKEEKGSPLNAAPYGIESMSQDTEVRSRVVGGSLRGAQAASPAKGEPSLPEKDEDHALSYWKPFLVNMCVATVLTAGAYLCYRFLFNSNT

C2C12 = experiment: Cytotoxicity against mouse C2C12 cells assessed as reduction in cell viability at 20 uM after 24 hrs by MTT assay; assay type: cell-based; settings: c2c12, 24 h
[2] = target: Mitogen-activated protein kinase 1 and 3 (ERK2 and ERK1) (Mus musculus) (UniProt P63085+Q63844); experiment: Upregulation of ERK1/2 phosphorylation at p44 residue in differentiated mouse C2C12 cells at 10 to 20 uM preincubated for 2 hrs followed by insulin addition measured after 15 mins by Western blot assay
[3] = target: T2, Tyrosine-protein phosphatase non-receptor type 1 (Mus musculus) (UniProt P35821); experiment: Inhibition of PTP1B in differentiated mouse 3T3L1 cells assessed as increase in glucose uptake at 5 to 20 uM after 1 hr by 2-NBDG staining based fluorescence assay
T2 sequence (whole entry): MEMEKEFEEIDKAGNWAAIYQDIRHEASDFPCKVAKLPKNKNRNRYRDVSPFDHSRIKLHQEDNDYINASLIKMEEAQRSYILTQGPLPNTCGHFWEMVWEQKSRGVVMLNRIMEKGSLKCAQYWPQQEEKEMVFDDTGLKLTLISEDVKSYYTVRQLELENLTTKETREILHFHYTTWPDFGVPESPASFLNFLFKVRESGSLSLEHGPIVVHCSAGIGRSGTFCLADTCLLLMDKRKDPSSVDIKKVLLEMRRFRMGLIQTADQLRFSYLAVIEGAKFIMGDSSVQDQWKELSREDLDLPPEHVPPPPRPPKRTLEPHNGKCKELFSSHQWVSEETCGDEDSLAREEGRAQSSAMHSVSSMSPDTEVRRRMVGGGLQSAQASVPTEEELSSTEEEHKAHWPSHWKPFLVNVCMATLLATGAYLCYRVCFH

[4] = target: T2, Tyrosine-protein phosphatase non-receptor type 1 (Mus musculus); experiment: Inhibition of PTP1B in differentiated mouse C2C12 cells assessed as upregulation of ACC phosphorylation at Ser-79 residue at 20 uM after 30 mins by Western blot assay
[5] = target: T2, Tyrosine-protein phosphatase non-receptor type 1 (Mus musculus); experiment: Inhibition of PTP1B in differentiated mouse 3T3L1 cells assessed as increase in glucose uptake at 20 uM after 1 hr by […] staining based fluorescence microscopic assay
[6] = target: T2, Tyrosine-protein phosphatase non-receptor type 1 (Mus musculus); experiment: Inhibition of PTP1B in differentiated mouse C2C12 cells assessed as upregulation of AMPKalpha phosphorylation at Thr-172 residue at 20 uM after 3 hrs by Western blot assay
[7] = target: T2, Tyrosine-protein phosphatase non-receptor type 1 (Mus musculus); experiment: Inhibition of PTP1B in differentiated mouse C2C12 cells assessed as upregulation of ACC phosphorylation at Ser-79 residue at 0.2 mM after 30 mins by Western blot assay

Chain of Mitogen-activated protein kinase 1 and 3 (ERK2 and ERK1) (Mus musculus) (P63085 whole entry, looked up): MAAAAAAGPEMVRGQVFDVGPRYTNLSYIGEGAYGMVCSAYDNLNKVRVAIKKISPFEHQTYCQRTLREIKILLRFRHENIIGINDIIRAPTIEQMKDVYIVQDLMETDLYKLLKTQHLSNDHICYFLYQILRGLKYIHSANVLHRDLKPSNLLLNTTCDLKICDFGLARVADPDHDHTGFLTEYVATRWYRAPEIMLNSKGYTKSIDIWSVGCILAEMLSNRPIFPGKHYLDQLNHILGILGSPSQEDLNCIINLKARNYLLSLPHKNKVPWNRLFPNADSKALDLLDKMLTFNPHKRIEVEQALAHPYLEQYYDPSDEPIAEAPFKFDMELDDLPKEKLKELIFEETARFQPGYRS
Chain of Mitogen-activated protein kinase 1 and 3 (ERK2 and ERK1) (Mus musculus) (Q63844 whole entry, looked up): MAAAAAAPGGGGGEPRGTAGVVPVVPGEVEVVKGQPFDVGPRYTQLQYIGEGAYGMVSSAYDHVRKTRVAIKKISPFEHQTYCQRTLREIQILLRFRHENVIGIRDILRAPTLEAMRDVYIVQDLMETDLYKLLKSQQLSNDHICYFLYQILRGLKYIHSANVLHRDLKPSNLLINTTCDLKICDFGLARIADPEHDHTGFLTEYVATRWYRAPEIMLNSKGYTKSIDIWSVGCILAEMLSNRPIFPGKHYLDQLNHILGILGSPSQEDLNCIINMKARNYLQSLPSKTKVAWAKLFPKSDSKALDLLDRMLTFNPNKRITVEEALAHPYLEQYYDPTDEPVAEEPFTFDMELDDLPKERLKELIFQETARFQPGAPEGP

SMILES | IC50 [1] [µM] | Activity [2] | inhibition [3] | inhibition [4] | inhibition [5] | inhibition [6] | inhibition [7] | Activity (C2C12)
CC1(C)C[C@@H]2C[C@](C)(O)C(=O)C=C1O2 | 27 | – | – | – | – | – | – | –
C=C1CC/C=C(\COC(C)=O)CC[C@@H](C(C)C)[C@@H](O)[C@@H]1O | 7.3 | Active | Active | Active | Active | inactive | – | Non-Toxic
NC(=O)c1ncn([C@@H]2O[C@H](CO)[C@@H](O)[C@H]2O)c1N | – | – | – | – | – | – | Active | –

The next lines start with results.

IC50 [1] [µM] | Activity [2] | inhibition [3] | inhibition [4] | inhibition [5] | inhibition [6] | inhibition [7] | SMILES | Activity (C2C12)
17.6 | – | – | – | – | – | – | CC1(C)[C@@H]2CC(=O)[C@@]1(C)C[C@@H]2O | –
23.6 | – | Active | – | Active | – | – | C=C(C)C1=CC[C@@]2(C)[C@H]1[C@H]1CC[C@@H]3[C@@]4(C)CC[C@H](OC(=O)CCCCCCCCCCCCCCC)C(C)(C)[C@@H]4CC[C@@]3(C)[C@]1(C)C[C@@H]2O | Non-Toxic
